PubChem BioAssay (NCI)
“And” between values parts separate entries of the source, which are not always exact repeats. Equal values may be shown once.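 Interpolation was linear, between the two tested concentrations surrounding the appropriate level; five concentrations were tested over 48 hours in 96-well plates. Here, GI50 denotes the concentration required for 50% inhibition of growth. TGI is the concentration that stops growth completely.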

Key:
Assay in all cases: NCI tumour cell line growth inhibition, 48 h; in the data active means GI50 below about 0.43 µM; inactive means the rest
HL-60(TB) leukemia = test system: HL-60(TB) leukemia
SF-539 CNS = test system: SF-539 CNS
SK-OV-3 ovarian = test system: SK-OV-3 ovarian
DMS 114 small cell lung = test system: DMS 114 small cell lung
SN12C renal = test system: SN12C renal
TK-10 renal = test system: TK-10 renal
SNB-75 CNS = test system: SNB-75 CNS
786-0 renal = test system: 786-0 renal
ACHN renal = test system: ACHN renal
CAKI-1 renal = test system: CAKI-1 renal
NCI-H23 lung = test system: NCI-H23 lung
U251 CNS = test system: U251 CNS
UO-31 renal = test system: UO-31 renal
SK-MEL-5 melanoma = test system: SK-MEL-5 melanoma
EKVX NSCLC = test system: EKVX NSCLC
OVCAR-4 ovarian = test system: OVCAR-4 ovarian
A498 renal = test system: A498 renal
NCI-H226 lung = test system: NCI-H226 lung
MOLT-4 leukemia = test system: MOLT-4 leukemia
SF-268 CNS = test system: SF-268 CNS
MALME-3M melanoma = test system: MALME-3M melanoma
OVCAR-8 ovarian = test system: OVCAR-8 ovarian
SNB-78 CNS = test system: SNB-78 CNS
SK-MEL-2 melanoma = test system: SK-MEL-2 melanoma
M19-MEL melanoma = test system: M19-MEL melanoma
SW-620 colon = test system: SW-620 colon
SK-MEL-28 melanoma = test system: SK-MEL-28 melanoma
NCI-H522 lung = test system: NCI-H522 lung
OVCAR-3 ovarian = test system: OVCAR-3 ovarian
HCC-2998 colon = test system: HCC-2998 colon
XF 498 CNS = test system: XF 498 CNS
NCI-H460 lung = test system: NCI-H460 lung
CCRF-CEM leukemia = test system: CCRF-CEM leukemia
RXF-631 renal = test system: RXF-631 renal
OVCAR-5 ovarian = test system: OVCAR-5 ovarian
K-562 leukemia = test system: K-562 leukemia
DMS 273 small cell lung = test system: DMS 273 small cell lung
HCT-116 colon = test system: HCT-116 colon
HOP-62 NSCLC = test system: HOP-62 NSCLC
HT29 colon = test system: HT29 colon
LXFL 529 NSCLC = test system: LXFL 529 NSCLC
UACC-62 melanoma = test system: UACC-62 melanoma
A549 NSCLC = test system: A549 NSCLC
HOP-18 NSCLC = test system: HOP-18 NSCLC
UACC-257 melanoma = test system: UACC-257 melanoma
SNB-19 CNS = test system: SNB-19 CNS
SR leukemia = test system: SR leukemia
HCT-15 colon = test system: HCT-15 colon
IGROV1 ovarian = test system: IGROV1 ovarian
COLO 205 colon = test system: COLO 205 colon
DLD-1 colon = test system: DLD-1 colon
M14 melanoma = test system: M14 melanoma
KM12 colon = test system: KM12 colon
SF-295 CNS = test system: SF-295 CNS
RPMI-8226 leukemia = test system: RPMI-8226 leukemia
KM20L2 colon = test system: KM20L2 colon
HOP-92 NSCLC = test system: HOP-92 NSCLC
DU-145 prostate = test system: DU-145 prostate
BT-549 breast = test system: BT-549 breast
HS 578T breast = test system: HS 578T breast
MCF7 breast = test system: MCF7 breast
LOX IMVI melanoma = test system: LOX IMVI melanoma
PC-3 prostate = test system: PC-3 prostate
RXF 393 renal = test system: RXF 393 renal
MDA-N = test system: MDA-N
T-47D breast = test system: T-47D breast
SN12K1 renal = test system: SN12K1 renal
P388 leukemia = test system: P388 leukemia
NCI/ADR-RES ovarian = test system: NCI/ADR-RES ovarian

C/C(CN1C(=O)c2ccccc2C1=O)=N\NS(=O)(=O)c1cccc(C(=O)O)c1
> 100000 nM: TGI (HL-60(TB) leukemia) | TGI (SF-539 CNS) | TGI (SK-OV-3 ovarian) | TGI (DMS 114 small cell lung) | TGI (SN12C renal) | TGI (TK-10 renal) | TGI (SNB-75 CNS) | TGI (786-0 renal) | TGI (ACHN renal) | TGI (CAKI-1 renal) | TGI (NCI-H23 lung) | TGI (U251 CNS) | TGI (UO-31 renal) | TGI (SK-MEL-5 melanoma) | TGI (EKVX NSCLC) | TGI (OVCAR-4 ovarian) | TGI (A498 renal) | TGI (NCI-H226 lung) | TGI (MOLT-4 leukemia) | TGI (SF-268 CNS) | TGI (MALME-3M melanoma) | TGI (OVCAR-8 ovarian) | TGI (SNB-78 CNS) | TGI (SK-MEL-2 melanoma) | TGI (M19-MEL melanoma) | TGI (SW-620 colon) | TGI (SK-MEL-28 melanoma) | TGI (NCI-H522 lung) | TGI (OVCAR-3 ovarian) | TGI (HCC-2998 colon) | TGI (XF 498 CNS) | TGI (NCI-H460 lung) | TGI (CCRF-CEM leukemia) | TGI (RXF-631 renal) | TGI (OVCAR-5 ovarian) | TGI (K-562 leukemia) | TGI (DMS 273 small cell lung) | TGI (HCT-116 colon) | TGI (HOP-62 NSCLC) | TGI (HT29 colon) | TGI (LXFL 529 NSCLC) | TGI (UACC-62 melanoma) | TGI (A549 NSCLC) | TGI (HOP-18 NSCLC) | TGI (UACC-257 melanoma) | TGI (SNB-19 CNS) | TGI (SR leukemia) | TGI (HCT-15 colon) | TGI (IGROV1 ovarian) | TGI (COLO 205 colon) | TGI (DLD-1 colon) | TGI (M14 melanoma) | TGI (KM12 colon) | TGI (SF-295 CNS) | TGI (RPMI-8226 leukemia) | TGI (KM20L2 colon)

Cc1cc(-c2c(F)cc3c4nn([C@H]5CC[C@@H](N(C)C)CC5)c(=O)c-4cn(C4CC4)c3c2F)cc(C)n1
982 nM: TGI (SK-MEL-5 melanoma)
267 nM and 1310 nM: TGI (LXFL 529 NSCLC)
346 nM and 1110 nM: TGI (CAKI-1 renal)
5770 nM: TGI (UACC-257 melanoma)
1100 nM: TGI (HT29 colon)
52.6 nM and 363 nM: TGI (786-0 renal)
2850 nM: TGI (DLD-1 colon)
26.8 nM: TGI (SR leukemia)
93.6 nM and 889 nM: TGI (COLO 205 colon)
118 nM and 586 nM: TGI (NCI-H226 lung)
717 nM: TGI (SF-295 CNS)
active: GI50 (HOP-92 NSCLC) 244 nM | GI50 (HL-60(TB) leukemia) 3.06 nM | GI50 (SF-539 CNS) 56.1 nM | GI50 (SK-OV-3 ovarian) 54.6 nM | GI50 (DMS 114 small cell lung) 111 nM | GI50 (SN12C renal) 20.7 nM | GI50 (SNB-75 CNS) 158 nM | GI50 (786-0 renal) 20.2 nM | GI50 (ACHN renal) 21.9 nM | GI50 (CAKI-1 renal) 185 nM | GI50 (NCI-H23 lung) 20.7 nM | GI50 (UO-31 renal) 275 nM | GI50 (OVCAR-4 ovarian) 316 nM | GI50 (A498 renal) 141 nM | GI50 (NCI-H226 lung) 36.8 nM | GI50 (MOLT-4 leukemia) 2 nM | GI50 (SF-268 CNS) 28.5 nM | GI50 (MALME-3M melanoma) 31.8 nM | GI50 (SK-MEL-2 melanoma) 73.5 nM | GI50 (M19-MEL melanoma) 247 nM | GI50 (SK-MEL-28 melanoma) 68.9 nM | GI50 (NCI-H522 lung) 32.5 nM | GI50 (HCC-2998 colon) 36.9 nM | GI50 (XF 498 CNS) 394 nM | GI50 (CCRF-CEM leukemia) 3.3 nM | GI50 (K-562 leukemia) 164 nM | GI50 (DMS 273 small cell lung) 30 nM | GI50 (HCT-116 colon) 39.1 nM | GI50 (HOP-62 NSCLC) 18 nM | GI50 (LXFL 529 NSCLC) 227 nM | GI50 (UACC-62 melanoma) 46.8 nM | GI50 (SR leukemia) 2 nM | GI50 (IGROV1 ovarian) 278 nM | GI50 (COLO 205 colon) 36.6 nM | GI50 (DLD-1 colon) 156 nM | GI50 (M14 melanoma) 53.9 nM | GI50 (RPMI-8226 leukemia) 29.4 nM
171 nM and 928 nM: TGI (ACHN renal)
78.4 nM and 455 nM: TGI (HOP-62 NSCLC)
> 100000 nM: TGI (MCF7 breast) | TGI (PC-3 prostate) | TGI (SNB-19 CNS)
inactive: GI50 (SNB-78 CNS) 669 nM
141 nM and 708 nM: TGI (SK-OV-3 ovarian)
256 nM and 1940 nM: TGI (SK-MEL-2 melanoma)
10800 nM: TGI (BT-549 breast)
11500 nM and 6930 nM: TGI (SNB-78 CNS)
37.2 nM and 172 nM: TGI (DMS 273 small cell lung)
1360 nM: TGI (SW-620 colon)
8710 nM: TGI (DU-145 prostate)
108 nM and 1010 nM: TGI (HCC-2998 colon)
2760 nM: TGI (T-47D breast)
368 nM and 3340 nM: TGI (SK-MEL-28 melanoma)
255 nM and 754 nM: TGI (UACC-62 melanoma)
1390 nM: TGI (RXF 393 renal)
273 nM: TGI (NCI-H460 lung)
190 nM and 540 nM: TGI (SNB-75 CNS)
55.8 nM and 471 nM: TGI (A498 renal)
174 nM and 620 nM: TGI (SF-539 CNS)
462 nM: TGI (KM20L2 colon)
124 nM and 360 nM: TGI (DMS 114 small cell lung)
6250 nM: TGI (HS 578T breast)
757 nM and 2290 nM: TGI (XF 498 CNS)
356 nM and 1270 nM: TGI (HCT-116 colon)
256 nM: TGI (RXF-631 renal)
5960 nM: TGI (EKVX NSCLC)
79 nM and 554 nM: TGI (NCI-H23 lung)
14200 nM: TGI (OVCAR-5 ovarian)
2660 nM: TGI (OVCAR-3 ovarian)
151 nM and 890 nM: TGI (SF-268 CNS)
208 nM and 1670 nM: TGI (MALME-3M melanoma)
6750 nM: TGI (MDA-N)
32.2 nM and 235 nM: TGI (HL-60(TB) leukemia)
507 nM and 1590 nM: TGI (M19-MEL melanoma)
919 nM: TGI (HOP-18 NSCLC)
88.8 nM: TGI (SN12C renal)
566 nM and 3290 nM: TGI (UO-31 renal)
1110 nM: TGI (KM12 colon)
144 nM and 771 nM: TGI (NCI-H522 lung)
571 nM: TGI (LOX IMVI melanoma)
808 nM: TGI (OVCAR-8 ovarian)
814 nM: TGI (U251 CNS)

Nc1c(S(=O)(=O)O)cc(S(=O)(=O)O)c2ccc(N=Nc3ccc(/C=C/c4ccc(N=Nc5ccc6c(S(=O)(=O)O)cc(S(=O)(=O)O)c(N)c6c5O)cc4S(=O)(=O)O)c(S(=O)(=O)O)c3)c(O)c12
> 92900 nM: TGI (XF 498 CNS)
> 100000 nM: TGI (HOP-92 NSCLC) | TGI (HL-60(TB) leukemia) | TGI (SF-539 CNS) | TGI (SK-OV-3 ovarian) | TGI (DMS 114 small cell lung) | TGI (SN12C renal) | TGI (SNB-75 CNS) | TGI (NCI-H23 lung) | TGI (U251 CNS) | TGI (UO-31 renal) | TGI (SK-MEL-5 melanoma) | TGI (EKVX NSCLC) | TGI (OVCAR-4 ovarian) | TGI (A498 renal) | TGI (NCI-H226 lung) | TGI (MOLT-4 leukemia) | TGI (SF-268 CNS) | TGI (MALME-3M melanoma) | TGI (OVCAR-8 ovarian) | TGI (SNB-78 CNS) | TGI (MCF7 breast) | TGI (SK-MEL-2 melanoma) | TGI (SN12K1 renal) | TGI (M19-MEL melanoma) | TGI (SW-620 colon) | TGI (SK-MEL-28 melanoma) | TGI (LOX IMVI melanoma) | TGI (NCI-H522 lung) | TGI (OVCAR-3 ovarian) | TGI (HCC-2998 colon) | TGI (NCI-H460 lung) | TGI (CCRF-CEM leukemia) | TGI (OVCAR-5 ovarian) | TGI (P388 leukemia) | TGI (K-562 leukemia) | TGI (DMS 273 small cell lung) | TGI (HCT-116 colon) | TGI (RXF 393 renal) | TGI (HOP-62 NSCLC) | TGI (HT29 colon) | TGI (UACC-62 melanoma) | TGI (A549 NSCLC) | TGI (HOP-18 NSCLC) | TGI (UACC-257 melanoma) | TGI (SNB-19 CNS) | TGI (HCT-15 colon) | TGI (IGROV1 ovarian) | TGI (COLO 205 colon) | TGI (DLD-1 colon) | TGI (NCI/ADR-RES ovarian) | TGI (KM12 colon) | TGI (SF-295 CNS) | TGI (RPMI-8226 leukemia) | TGI (KM20L2 colon)
